Assay results from US10040783B2 (Emory University, priority 2011, dated 2018).
Where two headings read alike, the source gives them in different places.

How the values were obtained:
[1] = in vitro; conditions: rat
[2] = molecular target: EP2 receptor (Homo sapiens, UniProt P43116); assay: Schild regression of PGE2-induced EP2 activation in C6G-EP2 cells; type: cell-based; set-up: expressed in transfected cells; host or cells: C6G-EP2 cells
Experimental: (§1) Information on the modality of antagonism can be obtained by performing Schild regression analysis characterized by: log (dr−1)=log XB−log KB. In the equation, dose ratio (dr)=fold shift in EC50, XB=[antagonist], KB=equilibrium dissociation constant for the antagonist-receptor complex. […] Thus, a lower KB value indicates a higher inhibitory potency.
To perform the Schild regression, C6G-EP2 cells were incubated first with vehicle, 0.01, 0.1 or 1 μM of test compound for 5 minutes, then with increasing concentrations of PGE2 to activate the EP2 receptor.

[3] = molecular target: EP4 receptor (Homo sapiens, UniProt P35408); assay: Schild regression analysis for EP4 receptor; type: cell-based; conditions: for Kb: read-out: KB (μM) EP4, from Schild regression analysis
Excerpt: as §1

[4] = test system: C6G cells; assay: CellTiter-Glo luminescent cell viability assay (cytotoxicity); conditions: for CC50: read-out: CC50, half maximal cytotoxic concentration, C6G cells after 48 h incubation
[5] = test system: rat primary hippocampal cultures; assay: NMDA-induced LDH release (excitotoxicity) in primary hippocampal cultures; type: cell-based; conditions: 10 μM compound; NMDA 30 μM plus glycine 10 μM overnight
Excerpt: Excitotoxicity caused by NMDA receptor activation is recognized to induce neuronal apoptosis both in vitro and in vivo in cortical neurons. NMDA receptor activation can, via COX-2, cause prostaglandin production, including PGE2. Activation of the EP2 receptor by PGE2 in microglia can promote neuroinflammation in several models of neurodegenerative diseases. The effect of EP2 antagonist compounds were examined on NMDA-induced excitotoxicity. Rat primary hippocampal cultures (DIV13-15) were preincubated with vehicle or increasing concentrations of test compound for 15-20 min, followed by treatment with NMDA (30 μM) plus glycine (10 μM) overnight in continued presence of the test compound. Lactate dehydrogenase (LDH) release was used as the measure of neuronal injury.

[6] = C6G-EP2 cells, PGE2 as agonist, read-out: KB (nM) EP2, from Schild regression analysis
[7] = additional compounds tables, read-out: EP2 KB

Chain of EP2 receptor (P43116 whole entry): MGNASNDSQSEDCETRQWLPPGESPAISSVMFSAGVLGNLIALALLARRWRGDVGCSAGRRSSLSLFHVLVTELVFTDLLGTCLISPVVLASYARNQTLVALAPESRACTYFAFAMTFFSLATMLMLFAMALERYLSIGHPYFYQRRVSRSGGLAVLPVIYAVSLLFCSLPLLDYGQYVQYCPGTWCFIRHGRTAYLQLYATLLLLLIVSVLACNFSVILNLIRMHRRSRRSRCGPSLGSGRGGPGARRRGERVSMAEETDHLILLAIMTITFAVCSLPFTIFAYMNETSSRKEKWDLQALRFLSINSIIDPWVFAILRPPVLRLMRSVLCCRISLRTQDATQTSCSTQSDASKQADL
Chain of EP4 receptor (P35408 whole entry): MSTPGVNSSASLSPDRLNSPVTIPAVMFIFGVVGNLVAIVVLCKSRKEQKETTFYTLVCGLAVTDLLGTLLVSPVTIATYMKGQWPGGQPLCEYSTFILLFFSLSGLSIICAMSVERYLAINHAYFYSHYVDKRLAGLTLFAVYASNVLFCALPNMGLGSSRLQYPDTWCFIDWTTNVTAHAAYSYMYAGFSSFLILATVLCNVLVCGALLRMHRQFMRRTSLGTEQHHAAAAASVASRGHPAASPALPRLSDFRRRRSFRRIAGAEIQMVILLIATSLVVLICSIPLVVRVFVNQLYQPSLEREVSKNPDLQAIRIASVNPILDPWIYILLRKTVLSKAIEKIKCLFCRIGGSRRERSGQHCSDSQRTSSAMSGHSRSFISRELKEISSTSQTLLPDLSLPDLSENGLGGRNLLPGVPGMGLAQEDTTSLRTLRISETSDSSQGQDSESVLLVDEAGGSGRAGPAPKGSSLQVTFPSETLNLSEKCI

SMILES | CC50 at 48 h ([1]; C6G cells) [µM] | Kb [2, 6] [nM] | Selective index, KB EP4/KB EP2 [3] | Kb [3] [µM] | Therapeutic index (in vitro), CC50/KB for EP2 [4] | Kb [2, 7] [nM] | further results
COc1cc(C=CC(=O)NCCn2c(C)nc3ccccc32)cc(OC)c1OC [1a, N-(2-(2-methyl-1H-benzo[d]imidazol-1-yl)ethyl)-3-(3,4,5-trimethoxyphenyl)acrylamide] | 360 | 348 | 39 | 13.7 | 1,030 |  | 
COc1ccc(C=CC(=O)NCCn2c(C)nc3ccccc32)cc1OC [1b, 3-(3,4-dimethoxyphenyl)-N-(2-(2-methyl-1H-benzo[d]imidazol-1-yl)ethyl)acrylamide] | 448 | 947 | 14 | 13.3 | 473 |  | 
Cc1nc2ccccc2n1CCNC(=O)C=Cc1ccc2c(c1)OCO2 [1c, 3-(benzo[d][1,3]dioxol-5-yl)-N-(2-(2-methyl-1H-benzo[d]imidazol-1-yl)ethyl)acrylamide] | 325 | 1490 | 10 | 15.3 | 219 |  | 
COc1cc(C=CC(=O)NCCn2cnc3ccccc32)cc(OC)c1OC [1d, N-(2-(1H-benzo[d]imidazol-1-yl)ethyl)-3-(3,4,5-trimethoxyphenyl)acrylamide] | 311 | 2520 | 6 | 13.9 | 123 |  | 
COc1cc(/C=C/C(=O)NCCN2CCCCC2C)cc(OC)c1OC (stereo not shown) [1e] |  |  |  | 18.9 |  |  | KB (nM) EP2, from Schild regression analysis ([2]; C6G-EP2 cells, PGE2 as agonist): Inactive; CC50 [4]: 316 µM; NMDA-induced LDH release, % of control [5]: did not show any effect and not
COc1ccc(C=CC(=O)NCCn2c(C)cc3cc(F)ccc32)cc1OC [1g, 3-(3,4-dimethoxyphenyl)-N-(2-(5-fluoro-2-methyl-1H-indol-1-yl)ethyl)acrylamide] | 264 | 22.2 | 77 | 1.7 | 11,900 |  | 
COc1ccc(/C=C/C(=O)NCCn2c(C(F)(F)F)cc3ccccc32)cc1OC [1i] |  | 58.8 | 381 | 22.4 | 3,550 |  | CC50 [4]: 209 µM
COc1cc(C=CC(=O)NCCCn2c(C)cc3ccccc32)cc(OC)c1OC [1j, N-(3-(2-methyl-1H-indol-1-yl)propyl)-3-(3,4,5-trimethoxyphenyl)acrylamide] | 182 | 1860 | 3 | 5.7 | 98 |  | 
COc1cc(C=CC(=O)N(C)CCn2c(C)cc3ccccc32)cc(OC)c1OC [1k, N-methyl-N-(2-(2-methyl-1H-indol-1-yl)ethyl)-3-(3,4,5-trimethoxyphenyl)acrylamide] | 278 | 185 | 90 | 16.6 | 1,500 |  | 
COc1cc(CCC(=O)NCCn2c(C)cc3ccccc32)cc(OC)c1OC [1l, N-(2-(2-methyl-1H-indol-1-yl)ethyl)-3-(3,4,5-trimethoxyphenyl)propanamide] | 397 |  |  | 18.1 |  |  | 
COc1ccc(C=CC(=O)NCCn2c(C)cc3ccccc32)cc1 [1m, 3-(4-methoxyphenyl)-N-(2-(2-methyl-1H-indol-1-yl)ethyl)acrylamide] | 3090 | 16.5 | 484 | 8 | 187,000 |  | 
COc1ccc(C=CC(=O)NCCn2c(C)cc3cc(F)ccc32)cc1 [1n, N-(2-(5-fluoro-2-methyl-1H-indol-1-yl)ethyl)-3-(4-methoxyphenyl)acrylamide] | 653 | 42.4 | 277 | 11.7 | 15,400 |  | 
Cc1cc2ccccc2n1CCNC(=O)C=Cc1ccc2c(c1)OCO2 [1o, 3-(benzo[d][1,3]dioxol-5-yl)-N-(2-(2-methyl-1H-indol-1-yl)ethyl)acrylamide] | 146 | 18.1 | 629 | 11.4 | 8,070 |  | 
CCOc1ccc(C=CC(=O)NCCn2c(C)cc3ccccc32)cc1OC [1p, 3-(4-ethoxy-3-methoxyphenyl)-N-(2-(2-methyl-1H-indol-1-yl)ethyl)acrylamide] | 517 | 7.2 | 268 | 1.9 | 71,800 |  | 
Cc1cc2ccccc2n1CCNC(=O)C=Cc1ccc(CC(C)C)cc1 [1q, 3-(4-isobutylphenyl)-N-(2-(2-methyl-1H-indol-1-yl)ethyl)acrylamide] | 199 | 82.4 | 367 | 30.2 | 2,420 |  | 
Cc1cc2ccccc2n1CCNC(=O)C=Cc1ccc(F)c(F)c1 [1r, 3-(3,4-difluorophenyl)-N-(2-(2-methyl-1H-indol-1-yl)ethyl)acrylamide] | 89 | 3.8 | 2,800 | 10.6 | 23,400 |  | 
Cc1cc2cc(F)ccc2n1CCNC(=O)C=Cc1ccc(F)c(F)c1 [1s, 3-(3,4-difluorophenyl)-N-(2-(5-fluoro-2-methyl-1H-indol-1-yl)ethyl)acrylamide] | 684 | 7 | 1,990 | 13.9 | 97,700 |  | 
Cc1cc2ccccc2n1CCNC(=O)C=Cc1cc(F)c(F)c(F)c1 [1t, N-(2-(2-methyl-1H-indol-1-yl)ethyl)-3-(3,4,5-trifluorophenyl)acrylamide] | 46 | 18.7 | 921 | 17.2 | 2,460 |  | 

SMILES | CC50 at 48 h ([1]; C6G cells) [µM] | Kb [2, 6] [nM] | Selective index, KB EP4/KB EP2 [3] | Kb [3] [µM] | Therapeutic index (in vitro), CC50/KB for EP2 [4] | Kb [2, 7] [nM] | further results
Cc1cc2cc(F)ccc2n1CCNC(=O)C=Cc1cc(F)c(F)c(F)c1 [1u, N-(2-(5-fluoro-2-methyl-1H-indol-1-yl)ethyl)-3-(3,4,5-trifluorophenyl)acrylamide] | 62 | 27.8 | 715 | 19.9 | 2,230 |  | 
CCOc1c(Br)cc(CCC(=O)NCCn2c(C)cc3ccccc32)cc1OC [1v] |  | 1.8 |  |  |  |  | Schild plot slope ([2]; C6G-EP2 cells, PGE2): 1.2; Modality of antagonism on EP2 receptor ([2]; Schild plots): competitive antagonism
COc1ccc(/C=C/C(=O)NCCn2c(C)cc3cc(F)ccc32)cc1Cl [1x] | 601 | 6.3 | 525 | 3.3 | 95,400 |  | 
COc1cc(OC)c(C=CC(=O)NCCn2c(C)cc3ccccc32)cc1Br [1y, 3-(5-bromo-2,4-dimethoxyphenyl)-N-(2-(2-methyl-1H-indol-1-yl)ethyl)acrylamide] | 1240 | 8 | 859 | 6.9 | 155,000 |  | 
Cc1cc(/C=C/C(=O)NCCn2c(C(F)(F)F)cc3ccccc32)cc(C)c1F [TG7-13] |  |  |  |  |  | 288 | 
COc1cc(C(=O)NCCn2c(C)cc3ccccc32)cc(OC)c1OC [TG7-112-1] |  |  |  |  |  | > 1000 | 
Cc1cc2ccccc2n1CCNC(=O)c1nc2cc(F)ccc2[nH]1 [TG7-118] |  |  |  |  |  | 128 | 
Cc1cc2ccccc2n1CCNC(=O)C1CCC(=O)N1 (stereo not shown) [TG7-120] |  |  |  |  |  | > 1000 | 
COc1cc(/C=C/C(=O)NCCc2c(C)oc3ccccc23)cc(OC)c1OC [TG7-122] |  |  |  |  |  | 217 | 
Cc1cc2ccccc2n1CCNC(=O)c1c[nH]c2c(F)cccc2c1=O [TG7-131] |  |  |  |  |  | 630 | 
Cc1cc2ccccc2n1CCNC(=O)c1ccc(C(N)=O)cc1 [TG7-140] |  |  |  |  |  | 150 | 
Cc1cc2ccccc2n1CCNC(=O)c1ccc(N2CCN(C)CC2)c(F)c1 [TG7-141, 3-fluoro-N-(2-(2-methyl-1H-indol-1-yl)ethyl)-4-(4-methylpiperazin-1-yl)benzamide] |  |  |  |  |  | 51.1 | 
Cc1cc2ccccc2n1CCNC(=O)c1ccc(N(C)C)cc1 [TG7-142, 4-(dimethylamino)-N-(2-(2-methyl-1H-indol-1-yl)ethyl)benzamide] |  |  |  |  |  | 10.4 | 
Cc1cc2ccccc2n1CCNC(=O)c1ccc(N)cc1 [TG7-143] |  |  |  |  |  | 207 | 
CC(=O)Nc1ccc(C(=O)NCCc2c(C)[nH]c3ccccc23)cc1 [TG7-146] |  |  |  |  |  | 138 | 
Cc1cc2ccccc2n1CCNC(=O)c1ccc(C#N)cc1 [TG7-147] |  |  |  |  |  | 139 | 
Cc1cc2ccccc2n1CCNC(=O)c1cnc2ccc(F)cc2c1O [TG7-148] |  |  |  |  |  | 174 | 
COc1cccc2c1C(=O)c1c(O)c3c(c(O)c1C2=O)C[C@@](O)(C(=O)CO)C[C@@H]3O[C@H]1C[C@H](N)[C@H](O)[C@H](C)O1 [doxorubicin, reference compound] |  |  |  |  |  |  | CC50 at 48 h [1]: 0.2 µM
